Tests used:
[1] = molecular target: T1, cloned human δ opioid receptor (Homo sapiens, UniProt P41143); experiment: Receptor-mediated [35S]GTPγS binding (agonist potency); format: biochemical; settings: stimulation of [35S]GTPγS binding, membranes with cloned human δ opioid receptor; read-out: in vitro δ agonist activity (EC50)
T1 construct: expressed in transfected cells; host or cells: CHO cells (membrane preparations)
Protocol: The potency and efficacy of compounds at each of the receptors are assessed by modifications of the methods of Selley et al., 1997 and Traynor and Nahorski, 1995 using receptor-mediated [^35S]GTPγS binding in the same membrane preparations used to measure receptor binding. Assays are carried out in 96-well FlashPlates® (Perkin Elmer Life Sciences, Inc, Boston, Mass.). Membranes prepared from CHO cells expressing the appropriate receptor (50-100 μg of protein) are added to assay mixtures containing agonist with or without antagonists, 100 pM [^35S]GTPγS (approx. 100,000 dpm), 3.0 μM GDP, 75 mM NaCl, 15 mM MgCl2, 1.0 mM ethylene glycol-bis(β-aminoethyl ether)-N,N,N′,N′-tetracetic acid, 1.1 mM dithiothreitol, 10 μg/mL leupeptin, 10 μg/mL pepstatin A, 200 μg/mL bacitracin, and 0.5 μg/mL aprotinin in 50 mM Tris-HCl buffer, pH 7.8. After incubation at room temperature for one hour, the plates are sealed, centrifuged at 800×g in a swinging bucket rotor for 5 min and bound radioactivity determined with a TopCount microplate scintillation counter (Packard Instrument Co., Meriden, Conn.).
EC50 values for agonists are determined from nonlinear regression fits of 8- or 12-point titration curves to the 4-parameter equation for a sigmoidal dose-response with a slope factor of 1.0 using GraphPad Prism® version 3.00 for Windows (GraphPad Software, San Diego, Calif.).
The potencies of the compounds were determined by testing the ability of a range of concentrations of each compound to inhibit the binding of the non-selective opioid antagonist, [^3H]diprenorphine, to the cloned human μ, κ, and δ opioid receptors, expressed in separate cell lines. […] These compounds display high selectivity δ/κ and δ/μ (at least 10-fold). The potencies of the agonists were assessed by their abilities to stimulate [^35S]GTPγS binding to membranes containing the cloned human δ opioid receptors.

[2] = molecular target: T1, cloned human δ opioid receptor; experiment: [3H]diprenorphine receptor binding, δ opioid receptor; settings: inhibition of [3H]diprenorphine binding, read-out: affinity (Ki value), delta opioid receptor
Protocol: (§1) The potencies of the compounds listed in Table 2 were determined by testing the ability of a range of concentrations of each compound to inhibit the binding of the non-selective opioid antagonist, [^3H]diprenorphine, to the cloned human μ, κ, and δ opioid receptors, expressed in separate cell lines. IC50 values were obtained by nonlinear analysis of the data using GraphPad Prism version 3.00 for Windows (GraphPad Software, San Diego). Ki values were obtained by Cheng-Prusoff corrections of IC50 values.
(§2) The receptor binding method (DeHaven and DeHaven-Hudkins, 1998) was a modification of the method of Raynor et al. (1994). After dilution in buffer A and homogenization as before, membrane proteins (10-80 μg) in 250 μL were added to mixtures containing test compound and [^3H]diprenorphine (0.5 to 1.0 nM, 40,000 to 50,000 dpm) in 250 μL of buffer A in 96-well deep-well polystyrene titer plates (Beckman). […] The filters were rinsed 4 times with 1 mL of cold 50 mM Tris HCl, pH 7.8 and radioactivity remaining on the filters determined by scintillation spectroscopy. Nonspecific binding was determined by the minimum values of the titration curves and was confirmed by separate assay wells containing 10 μM naloxone. Ki values were determined by Cheng-Prusoff corrections of IC50 values derived from nonlinear regression fits of 12 point titration curves using GraphPad Prism® version 3.00 for Windows (GraphPad Software, San Diego, Calif.).
To determine the equilibrium dissociation constant for the inhibitors (Ki), radioligand bound (cpm) in the presence of various concentrations of test compounds was measured. The concentration to give half-maximal inhibition (EC50) of radioligand binding was determined from a best nonlinear regression fit to the following equation, […]
The potencies of the compounds were determined by testing the ability of a range of concentrations of each compound to inhibit the binding of the non-selective opioid antagonist, [^3H]diprenorphine, to the cloned human μ, κ, and δ opioid receptors, expressed in separate cell lines. […]

[3] = molecular target: T2, cloned human κ opioid receptor (Homo sapiens, UniProt P41145); experiment: [3H]diprenorphine receptor binding, κ opioid receptor; settings: inhibition of [3H]diprenorphine binding, read-out: affinity (Ki value), kappa opioid receptor
T2 construct: expressed in transfected cells; host or cells: CHO cells (membrane preparations)
Protocol: as §1
as §2, with “(1994).” for “(1994). After dilution in buffer A and homogenization as before, membrane proteins (10-80 μg) in 250 μL were added to mixtures containing test compound and [^3H]diprenorphine (0.5 to 1.0 nM, 40,000 to 50,000 dpm) in 250 μL of buffer A in 96-well deep-well polystyrene titer plates (Beckman).”
(§3) To determine the equilibrium dissociation constant for the inhibitors (Ki), radioligand bound (cpm) in the presence of various concentrations of test compounds was measured. […]

[4] = molecular target: T3, cloned human μ opioid receptor (Homo sapiens, UniProt P35372); experiment: [3H]diprenorphine receptor binding, μ opioid receptor; settings: inhibition of [3H]diprenorphine binding, read-out: affinity (Ki value), mu opioid receptor
T3 construct: expressed in transfected cells; host or cells: CHO cells (membrane preparations)
Protocol: as §1
as §2, with “(1994).” for “(1994). After dilution in buffer A and homogenization as before, membrane proteins (10-80 μg) in 250 μL were added to mixtures containing test compound and [^3H]diprenorphine (0.5 to 1.0 nM, 40,000 to 50,000 dpm) in 250 μL of buffer A in 96-well deep-well polystyrene titer plates (Beckman).”
as §3

T1 sequence (P41143 whole entry): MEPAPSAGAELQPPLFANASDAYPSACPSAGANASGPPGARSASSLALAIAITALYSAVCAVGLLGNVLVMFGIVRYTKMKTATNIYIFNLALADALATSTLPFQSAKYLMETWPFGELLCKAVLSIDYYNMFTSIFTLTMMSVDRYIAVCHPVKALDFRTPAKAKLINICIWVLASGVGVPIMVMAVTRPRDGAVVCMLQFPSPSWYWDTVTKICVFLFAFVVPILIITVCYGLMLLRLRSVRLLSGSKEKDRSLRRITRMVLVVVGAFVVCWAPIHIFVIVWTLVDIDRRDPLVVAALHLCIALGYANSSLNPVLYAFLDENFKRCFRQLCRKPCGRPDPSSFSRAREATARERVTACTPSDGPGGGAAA
T3 sequence (P35372 whole entry): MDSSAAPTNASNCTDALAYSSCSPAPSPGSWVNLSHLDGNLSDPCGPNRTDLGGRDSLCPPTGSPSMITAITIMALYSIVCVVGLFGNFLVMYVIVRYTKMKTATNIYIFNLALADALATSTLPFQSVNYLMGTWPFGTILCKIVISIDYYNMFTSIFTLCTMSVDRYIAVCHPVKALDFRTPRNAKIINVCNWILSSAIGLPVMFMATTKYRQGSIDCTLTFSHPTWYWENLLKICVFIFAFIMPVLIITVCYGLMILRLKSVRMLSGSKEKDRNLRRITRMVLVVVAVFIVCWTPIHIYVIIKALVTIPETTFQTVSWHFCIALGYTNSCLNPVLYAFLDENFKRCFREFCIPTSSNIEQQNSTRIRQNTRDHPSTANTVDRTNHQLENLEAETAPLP
T2 sequence (P41145 whole entry): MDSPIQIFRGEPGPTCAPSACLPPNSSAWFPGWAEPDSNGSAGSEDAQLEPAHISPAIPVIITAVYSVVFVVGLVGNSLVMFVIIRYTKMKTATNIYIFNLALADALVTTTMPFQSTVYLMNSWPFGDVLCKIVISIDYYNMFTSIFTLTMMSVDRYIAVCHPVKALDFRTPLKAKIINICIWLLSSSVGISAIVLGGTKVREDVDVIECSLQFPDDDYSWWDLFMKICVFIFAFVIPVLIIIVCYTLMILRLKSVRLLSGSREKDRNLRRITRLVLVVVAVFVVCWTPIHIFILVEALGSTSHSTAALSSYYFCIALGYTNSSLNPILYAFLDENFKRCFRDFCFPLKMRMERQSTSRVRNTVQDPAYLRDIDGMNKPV

SMILES | EC50 [1] [nM] | Ki [2] [nM] | Ki [3] [nM] | Ki [4] [nM]
CCN(CC)C(=O)c1ccc(C2CC3(CCNCC3)Oc3ccc(F)cc32)c(O)c1 (single isomer, unassigned) [61B] | 1280 | 75 |  | 
CC(=O)c1ccc(C2=CC3(CCNCC3)Oc3ccccc32)cc1 [33M] | 287 | 9.7 | > 1000 | > 1000
CCN(CC)C(=O)c1ccc(C2CC3(CCNCC3)Oc3ccc(F)cc32)c(O)c1 (single isomer, unassigned) [61A] | 16.8 | 0.59 |  | 

From patent US7598261B2, “Spirocyclic heterocyclic derivatives and methods of their use” (Adolor Corporation, priority 2005, dated 2009)
